Experiments:
Assay in all cases: CTG-3D luminescence at 96 h relative to day-0 seeding control (ratio to day 0); higher = more growth / less cytotoxicity; PDxO 3D drug screen, 96 h, CTG-3D normalised to day-0 seeding control.
MDA-MB-231 = test system: MDA-MB-231
HCI-002 = test system: HCI-002 (organoid from a triple-negative breast cancer xenograft)
HCI-011.E2 = test system: HCI-011.E2 (organoid from an ER-positive breast cancer xenograft)
HCI-023 = test system: HCI-023 (organoid from a triple-negative breast cancer xenograft)
HCI-015 = test system: HCI-015 (organoid from a triple-negative breast cancer xenograft)

COc1cc2c(Oc3ccc4[nH]c(C)cc4c3F)ncnc2cc1OCCCN1CCCC1 [cediranib]
CTG-3D luminescence at 96 h
Conditions	12.5 pM	0.00025 µM	0.005 µM	0.1 µM	1 µM	10 µM	100 µM	625 fM
HCI-011.E2	1.53	1.52	1.45	2.05	1.65	1.44	0.0243	1.97
MDA-MB-231	4.34	4.3	4.48	4.29	4.44	1.46	0.0107	4.45

CTG-3D luminescence at 96 h
Conditions	12.5 pM	0.00025 µM	0.005 µM	0.1 µM	1 µM	10 µM	100 µM	625 fM
HCI-002, days in culture: 62	2.64	2.39	2.84	2.46	2.52	0.0315	-0.00243	2.92
HCI-002, days in culture: 82	2.68	2.82	2.11	2.52	2.64	0.0265	0.00109	3.14
HCI-002, days in culture: 91	4.4	3.53	3.54	4.14	3.86	0.0389	-0.00511	4.42
HCI-002, days in culture: 191	2.49	2.65	2.32	2.43	2.47	0.0249	0.000973	2.52
HCI-002, days in culture: 209	2.4	2.26	1.95	1.95	1.93	0.0194	-0.000945	2.14
HCI-002, days in culture: 227	5.77	5.66	5.43	6.23	4.99	-0.101	-0.211	5.65
HCI-011.E2, days in culture: 74	2.32	2.91	2.13	2.41	2.47	2.28	0.0101	2.38
HCI-015, days in culture: 172	2.29	1.76	2.22	1.47	2.43	0.0376	-0.0013	2.51
HCI-015, days in culture: 191	2.09	1.61	1.52	1.16	1.39	0.0236	-0.00165	1.33
HCI-015, days in culture: 218	1.26	1.53	1.55	1.85	1.49	0.0308	-0.00209	1.68
HCI-023, days in culture: 111	1.46	1.23	1.27	1.19	0.911	0.0116	-0.00068	1.41
HCI-023, days in culture: 128	1.2	1.51	1.06	1.52	0.96	0.0129	-0.00109	1.48

Reference: the supplement of paper PMC8882468
